Measured values published in patent US10307425B2, “Compositions and methods for treating toxoplasmosis, cryptosporidiosis and other apicomplexan protozoan related diseases” (UNIVERSITY OF WASHINGTON, priority 2015, dated 2019).
≈ marks a conversion by molar mass, not a printed value. Like-named read-outs stand apart in the source and are kept apart here.

What was measured:
SnCDPK1 = test: Recombinant SnCDPK1 inhibition; assay type: biochemical, Sarcocystis neurona
S. neurona merozoites = test: S. neurona growth assay (yellow fluorescent protein-expressing clone); details: Sarcocystis neurona, read-out: S. neurona EC50
in vivo = details: BALB/c, mouse, po, 10 mg/kg
[1] = pH 6.5
[2] = Rat PK following IV and PO dosing; details: rats, PO vs IV
TgCDPK1 = TgCDPK1 (Toxoplasma gondii, UniProt Q9BJF5); test: biochemical
N. caninum [3] = test: N. caninum in vitro cultures; assay type: cell-based, Neospora caninum
BbCDPK1 = BbCDPK1 (Besnoitia besnoiti, UniProt A0A290U7L2); test: BbCDPK1 inhibition; assay type: biochemical
N. caninum [4] = test: Treatment of non-pregnant and pregnant Balb/c mice infected with N. caninum; assay type: in vivo, Neospora caninum
Besnoitia besnoiti = Besnoitia besnoiti in vitro activity; assay type: cell-based
physchem = details: water, pH 6.5, aqueous buffer

TgCDPK1, sequence (Q9BJF5 1-507): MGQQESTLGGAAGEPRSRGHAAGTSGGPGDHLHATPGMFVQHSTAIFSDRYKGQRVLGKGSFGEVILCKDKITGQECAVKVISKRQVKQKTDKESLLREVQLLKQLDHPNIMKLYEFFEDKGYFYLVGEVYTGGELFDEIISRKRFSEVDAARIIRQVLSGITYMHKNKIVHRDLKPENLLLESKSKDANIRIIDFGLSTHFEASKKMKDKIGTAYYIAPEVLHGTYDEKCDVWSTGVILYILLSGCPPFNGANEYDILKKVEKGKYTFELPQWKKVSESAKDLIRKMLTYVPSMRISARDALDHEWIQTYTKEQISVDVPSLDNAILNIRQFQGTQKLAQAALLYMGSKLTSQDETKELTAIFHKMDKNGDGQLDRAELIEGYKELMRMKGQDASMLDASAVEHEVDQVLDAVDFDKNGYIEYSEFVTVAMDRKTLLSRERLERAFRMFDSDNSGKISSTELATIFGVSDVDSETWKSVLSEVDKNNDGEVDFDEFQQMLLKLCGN
BbCDPK1, sequence (A0A290U7L2 1-497): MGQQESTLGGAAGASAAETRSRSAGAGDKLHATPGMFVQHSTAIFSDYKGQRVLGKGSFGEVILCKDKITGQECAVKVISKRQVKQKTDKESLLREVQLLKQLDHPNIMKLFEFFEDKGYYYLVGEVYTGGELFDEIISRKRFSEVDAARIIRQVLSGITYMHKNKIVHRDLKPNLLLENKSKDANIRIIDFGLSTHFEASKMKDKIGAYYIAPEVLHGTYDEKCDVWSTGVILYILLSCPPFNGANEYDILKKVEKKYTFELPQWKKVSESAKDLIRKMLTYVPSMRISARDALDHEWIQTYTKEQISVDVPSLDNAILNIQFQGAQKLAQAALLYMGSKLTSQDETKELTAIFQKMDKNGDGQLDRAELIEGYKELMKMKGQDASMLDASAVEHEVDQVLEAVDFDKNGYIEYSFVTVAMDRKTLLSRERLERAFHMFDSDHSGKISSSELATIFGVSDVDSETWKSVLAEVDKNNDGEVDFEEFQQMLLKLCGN

`CC(C)(O)Cn1nc(-c2ccc3nc(OC4CC4)ccc3c2)c2c(N)ncnc21` [Example 25, 1-(4-Amino-3-(2-cyclopropoxyquinolin-6-yl)-1H-pyrazolo[3,4-d]pyrimidin-1-yl)-2-methylpropan-2-ol] gave an IC50 (SnCDPK1) of 7.5 nM and an EC50 (S. neurona merozoites) of 128 nM.

With `Nc1ncnc2c1c(-c1ccc3nc(OC4CC4)ccc3c1)nn2CC1CCOCC1` [Example 22, 3-(2-Cyclopropoxyquinolin-6-yl)-1-((tetrahydro-2H-pyran-4-yl)methyl)-1H-pyrazolo[3,4-d]pyrimidin-4-amine] the Cmax (in vivo; female) was 880 ± 230 nM, the Tmax (in vivo; female) was 30 min and the Solubility [1] was 17 µM (≈ 7.08 µg/mL).

With `CC(C)Cn1nc(-c2ccc3cc(OCC(C)(C)O)ccc3c2)c2c(N)ncnc21` [Example 33, 1-(6-(4-amino-1-isobutyl-1H-pyrazolo[3,4-d]pyrimidin-3-yl)naphthalen-2-yloxy)-2-methylpropan-2-ol] the “bioavailability (in words)” value [2] was “essentially complete bioavailability” and the IC50 (TgCDPK1) was 5.7 nM.

In the case of `CCOc1ccc2cc(-c3nn(CC4CCN(C)CC4)c4ncnc(N)c34)ccc2c1` [Compound 150], the IC50 (SnCDPK1) is reported as 5.9 nM, the EC50 (S. neurona merozoites) is reported as 68 nM and the “activity against N. caninum in vitro” value (N. caninum [3]) is reported as “effective in treating N. caninum in vitro”. For the same compound, the Cmax (in vivo) was 750 ± 150 nM, the IC50 (BbCDPK1) was 4 nM and the “treatment of N. caninum infected mice” value (N. caninum [4]) was “treats infected mice and rids of N. caninum infection in brain and fetuses”. The “B. besnoiti EC100” value (Besnoitia besnoiti) was 2.580 µM and the EC50 (Besnoitia besnoiti; Besnoitia besnoiti, read-out: B. besnoiti EC50) was 45 nM.

`Nc1ncnc2c1c(-c1ccc3nccnc3c1)nn2CC1CCNCC1` showed an IC50 (SnCDPK1) of over 2000 nM and an EC50 (S. neurona merozoites) of over 10000 nM.

Work on `CC(C)(CO)Cn1nc(-c2ccc3cc(OC4CC4)ccc3c2)c2c(N)ncnc21` [Example 26, 3-(4-Amino-3-(6-cyclopropoxynaphthalen-2-yl)-1H-pyrazolo[3,4-d]pyrimidin-1-yl)-2,2-dimethylpropan-1-ol] yielded a Cmax (in vivo; female) of 390 ± 160 nM and a Solubility [1] of 6.2 µM (≈ 2.5 µg/mL).

`CN1CCC(Cn2nc(-c3ccc4cc(OC5COC5)ccc4c3)c3c(N)ncnc32)CC1` [Example 12, 1-((1-Methylpiperidin-4-yl)methyl)-3-(6-(oxetan-3-yloxy)naphthalen-2-yl)-1H-pyrazolo[3,4-d]pyrimidin-4-amine] showed an IC50 (TgCDPK1) of 10.7 nM.

For `CN1CCC(Cn2nc(-c3ccc4cc(OC(F)F)ccc4c3)c3c(N)ncnc32)CC1` [Example 95, 3-(6-(difluoromethoxy)naphthalen-2-yl)-1-((1-methylpiperidin-4-yl)methyl)-1H-pyrazolo[3,4-d]pyrimidin-4-amine], the IC50 (TgCDPK1) was 6.5 nM.

In the case of `Nc1ncnc2c1c(-c1ccc3nc(OC4CC4)ccc3c1)nn2CC1CNC1` [Example 40, 1-(azetidin-3-ylmethyl)-3-(2-cyclopropoxyquinolin-6-yl)-1H-pyrazolo[3,4-d]pyrimidin-4-amine], the IC50 (TgCDPK1) is reported as 2.3 nM.

With `CC(C)n1nc(-c2ccc3cc(OCCO)ccc3c2)c2c(N)ncnc21` [Example 118, 2-((6-(4-amino-1-isopropyl-1H-pyrazolo[3,4-d]pyrimidin-3-yl)naphthalen-2-yl)oxy)ethan-1-ol] the IC50 (TgCDPK1) was 6.2 nM.

For `CC(C)(O)Cn1cc(-c2ccc3nc(OC4CC4)ccc3c2)c2c(N)ncnc21` [Example 55, 1-(4-amino-5-(2-cyclopropoxyquinolin-6-yl)-7H-pyrrolo[2,3-d]pyrimidin-7-yl)-2-methylpropan-2-ol], the IC50 (TgCDPK1) was 3.2 nM.

For `COc1ccc2cc(-c3nn(CC4CCOCC4)c4ncnc(N)c34)ccc2n1` [Example 27, 3-(2-methoxyquinolin-6-yl)-1-((tetrahydro-2H-pyran-4-yl)methyl)-1H-pyrazolo[3,4-d]pyrimidin-4-amine], the Solubility (physchem) was 8 µM (≈ 3.12 µg/mL), the IC50 (TgCDPK1) was 21.2 nM and the Cmax (in vivo; female) was 3900 ± 1100 nM. For the same compound, the Tmax (in vivo; female) was 30 min and the half-life (in vivo; female) was 41 ± 21 min.

Work on `CC(C)(Cn1nc(-c2ccc3cc(OC4CC4)ccc3c2)c2c(N)ncnc21)C(=O)O` [Example 76, 3-(4-amino-3-(6-cyclopropoxynaphthalen-2-yl)-1H-pyrazolo[3,4-d]pyrimidin-1-yl)-2,2-dimethylpropanoic acid] yielded an IC50 (TgCDPK1) of 19.4 nM.

With `COC(=O)COc1ccc2cc(-c3nn(CC4CCNCC4)c4ncnc(N)c34)ccc2n1` [Example 89, methyl 2-(6-(4-amino-1-(piperidin-4-ylmethyl)-1H-pyrazolo[3,4-d]pyrimidin-3-yl)quinolin-2-yloxy)acetate] the IC50 (TgCDPK1) was 1440 nM.
